Results reported in PubChem BioAssay AID2060505 (Molecular Pharmacology Branch, DTP, NCI, 2025).

System: 633275-114-R-J1-PDC complex spheroids, viability
Assay: Anticancer human tumor 633275-114-R-J1-PDC patient-derived endometrial adenocarcinoma cell line growth inhibition [GQUAD]
Conditions: for IC50: curve of first compound; for viability, T/C: stronger effect = lower value; active = viability on the fitted dose curve at most 10% of control; inactive = the rest
Method in brief: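 Multi-cell-type spheroids of tumor cells with HUVEC and mesenchymal stem cells, treated with drug combinations. Concentrations descend in half-log steps from near clinical Cmax, or from 10 microM where Cmax is unknown; viability read-out.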

[1] = second compound 0.0316 µM, first compound 0.0316 µM
[2] = second compound 0.0316 µM, first compound 0.1 µM
[3] = second compound 0.0316 µM, first compound 0.316 µM
[4] = second compound 0.0316 µM, first compound 1 µM
[5] = second compound 0.0316 µM, first compound 3.16 µM
[6] = second compound 0.0316 µM, first compound 10 µM
[7] = second compound 0.1 µM, first compound 0.0316 µM
[8] = second compound 0.1 µM, first compound 0.1 µM
[9] = second compound 0.1 µM, first compound 0.316 µM
[10] = second compound 0.1 µM, first compound 1 µM
[11] = second compound 0.1 µM, first compound 3.16 µM
[12] = second compound 0.1 µM, first compound 10 µM
[13] = second compound 0.316 µM, first compound 0.0316 µM
[14] = second compound 0.316 µM, first compound 0.1 µM
[15] = second compound 0.316 µM, first compound 0.316 µM
[16] = second compound 0.316 µM, first compound 1 µM
[17] = second compound 0.316 µM, first compound 3.16 µM
[18] = second compound 0.316 µM, first compound 10 µM
[19] = second compound 1 µM, first compound 0.0316 µM
[20] = second compound 1 µM, first compound 0.1 µM
[21] = second compound 1 µM, first compound 0.316 µM
[22] = second compound 1 µM, first compound 1 µM
[23] = second compound 1 µM, first compound 3.16 µM
[24] = second compound 1 µM, first compound 10 µM
[25] = second compound 3.16 µM, first compound 0.0316 µM
[26] = second compound 3.16 µM, first compound 0.1 µM
[27] = second compound 3.16 µM, first compound 0.316 µM
[28] = second compound 3.16 µM, first compound 1 µM
[29] = second compound 3.16 µM, first compound 3.16 µM
[30] = second compound 3.16 µM, first compound 10 µM
[31] = second compound 10 µM, first compound 0.0316 µM
[32] = second compound 10 µM, first compound 0.1 µM
[33] = second compound 10 µM, first compound 0.316 µM
[34] = second compound 10 µM, first compound 1 µM
[35] = second compound 10 µM, first compound 3.16 µM
[36] = second compound 10 µM, first compound 10 µM
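Note: spheroids exposed to the agents for seven days.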
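Throughout, for viability, T/C: percent of DMSO vehicle control viability which is 100%.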

Cc1cccc(N(C)C(=O)C2C(O)CCN2c2nc(C)cc(C(F)(F)F)c2C#N)c1 (centres undefined) + Cc1[nH]c2ccc(F)cc2c1-c1nc2c3cccnc3c3ncccc3c2[nH]1
inactive: viability, T/C [1] 108% | viability, T/C [2] 97.1% | viability, T/C [3] 103% | viability, T/C [4] 94% | viability, T/C [5] 99.8% | viability, T/C [6] 99.4% | viability, T/C [7] 99.2% | viability, T/C [8] 99.9% | viability, T/C [9] 97.4% | viability, T/C [10] 94.3% | viability, T/C [11] 91.6% | viability, T/C [12] 101% | viability, T/C [13] 91.1% | viability, T/C [14] 101% | viability, T/C [15] 99.5% | viability, T/C [16] 98.9% | viability, T/C [17] 98% | viability, T/C [18] 99.2% | viability, T/C [19] 86.4% | viability, T/C [20] 86.2% | viability, T/C [21] 90.1% | viability, T/C [22] 90.4% | viability, T/C [23] 91.7% | viability, T/C [24] 92.9% | viability, T/C [25] 73.8% | viability, T/C [26] 71.6% | viability, T/C [27] 76.7% | viability, T/C [28] 74.4% | viability, T/C [29] 79.3% | viability, T/C [30] 75.5% | viability, T/C [31] 69.6% | viability, T/C [32] 77.7% | viability, T/C [33] 79.1% | viability, T/C [34] 72.6% | viability, T/C [35] 69.8% | viability, T/C [36] 71.2%
> 10 µM: IC50 (second compound 0.0316 µM) | IC50 (second compound 0.1 µM) | IC50 (second compound 0.316 µM) | IC50 (second compound 1 µM) | IC50 (second compound 3.16 µM) | IC50 (second compound 10 µM)

CC(C)n1c(=O)n(C)c2cnc3cc(F)c(-c4ccc(OCCCN5CCCCC5)nc4)cc3c21 + Cc1[nH]c2ccc(F)cc2c1-c1nc2c3cccnc3c3ncccc3c2[nH]1
> 10 µM: IC50 (second compound 0.0316 µM) | IC50 (second compound 0.1 µM) | IC50 (second compound 0.316 µM) | IC50 (second compound 1 µM) | IC50 (second compound 3.16 µM) | IC50 (second compound 10 µM)
inactive: viability, T/C [1] 109% | viability, T/C [2] 105% | viability, T/C [3] 109% | viability, T/C [4] 100% | viability, T/C [5] 95.3% | viability, T/C [6] 68.3% | viability, T/C [7] 109% | viability, T/C [8] 105% | viability, T/C [9] 108% | viability, T/C [10] 101% | viability, T/C [11] 97.8% | viability, T/C [12] 70.5% | viability, T/C [13] 106% | viability, T/C [14] 105% | viability, T/C [15] 99.8% | viability, T/C [16] 99.2% | viability, T/C [17] 99.9% | viability, T/C [18] 71.2% | viability, T/C [19] 106% | viability, T/C [20] 98.2% | viability, T/C [21] 103% | viability, T/C [22] 90.9% | viability, T/C [23] 98.7% | viability, T/C [24] 70.7% | viability, T/C [25] 79.8% | viability, T/C [26] 76.3% | viability, T/C [27] 76.2% | viability, T/C [28] 72.2% | viability, T/C [29] 68.9% | viability, T/C [30] 55.1% | viability, T/C [31] 76.4% | viability, T/C [32] 74.4% | viability, T/C [33] 73.9% | viability, T/C [34] 74.1% | viability, T/C [35] 75% | viability, T/C [36] 55.4%
